Experimental data reported in patent US9266878B2, “Phosphatidylinositol 3-kinase inhibitors” (Gilead Calistoga LLC, priority 2012, dated 2016).

What was measured:
Test in all cases: Enzymatic activity of PI3K isoforms, TR-FRET assay (PIP3 formation)
Format in all cases: biochemical
PI3Kα = PI3Kα (Homo sapiens (Human), UniProt P42336); conditions: bound given in uM
Description: (§1) Enzymatic activity of the class I PI3K isoforms was measured using a time-resolved fluorescence resonance energy transfer (TR-FRET) assay that monitors formation of the product 3,4,5-inositol triphosphate molecule (PIP3), as it competes with fluorescently labeled PIP3 for binding to the GRP-1 pleckstrin homology domain protein. An increase in […] product results in a decrease in TR-FRET signal as the labeled fluorophore is displaced from the GRP-1 protein binding site.
(§2) Class I PI3K isoforms were expressed and purified as heterodimeric recombinant proteins. All assay reagents and buffers for the TR-FRET assay were purchased from Millipore. […] After an assay reaction time of 30 minutes at 25° C., reactions were terminated with a final concentration of 10 mM EDTA, 10 nM labeled-PIP3, and 35 nM Europium labeled GRP-1 detector protein before reading TR-FRET on an Envision plate reader (Ex: 340 nm; Em: 615/665 nm; 100 μs delay and 500 μs read window).
(§3) IC50 are reported in units of nM. These assays generally produced results within 3-fold of the reported mean.

PI3Kδ = PI3Kδ (Homo sapiens (Human), UniProt O00329); conditions: bound given in nM
Description: as §1, §2, §3

PI3Kγ = PI3Kγ (Homo sapiens (Human), UniProt P48736)
Description: as §1
Class I PI3K isoforms were expressed and purified as heterodimeric recombinant proteins. All assay reagents and buffers for the TR-FRET assay were purchased from Millipore.
IC50 are reported in units of nM.

PI3Kδ, sequence (O00329 whole entry): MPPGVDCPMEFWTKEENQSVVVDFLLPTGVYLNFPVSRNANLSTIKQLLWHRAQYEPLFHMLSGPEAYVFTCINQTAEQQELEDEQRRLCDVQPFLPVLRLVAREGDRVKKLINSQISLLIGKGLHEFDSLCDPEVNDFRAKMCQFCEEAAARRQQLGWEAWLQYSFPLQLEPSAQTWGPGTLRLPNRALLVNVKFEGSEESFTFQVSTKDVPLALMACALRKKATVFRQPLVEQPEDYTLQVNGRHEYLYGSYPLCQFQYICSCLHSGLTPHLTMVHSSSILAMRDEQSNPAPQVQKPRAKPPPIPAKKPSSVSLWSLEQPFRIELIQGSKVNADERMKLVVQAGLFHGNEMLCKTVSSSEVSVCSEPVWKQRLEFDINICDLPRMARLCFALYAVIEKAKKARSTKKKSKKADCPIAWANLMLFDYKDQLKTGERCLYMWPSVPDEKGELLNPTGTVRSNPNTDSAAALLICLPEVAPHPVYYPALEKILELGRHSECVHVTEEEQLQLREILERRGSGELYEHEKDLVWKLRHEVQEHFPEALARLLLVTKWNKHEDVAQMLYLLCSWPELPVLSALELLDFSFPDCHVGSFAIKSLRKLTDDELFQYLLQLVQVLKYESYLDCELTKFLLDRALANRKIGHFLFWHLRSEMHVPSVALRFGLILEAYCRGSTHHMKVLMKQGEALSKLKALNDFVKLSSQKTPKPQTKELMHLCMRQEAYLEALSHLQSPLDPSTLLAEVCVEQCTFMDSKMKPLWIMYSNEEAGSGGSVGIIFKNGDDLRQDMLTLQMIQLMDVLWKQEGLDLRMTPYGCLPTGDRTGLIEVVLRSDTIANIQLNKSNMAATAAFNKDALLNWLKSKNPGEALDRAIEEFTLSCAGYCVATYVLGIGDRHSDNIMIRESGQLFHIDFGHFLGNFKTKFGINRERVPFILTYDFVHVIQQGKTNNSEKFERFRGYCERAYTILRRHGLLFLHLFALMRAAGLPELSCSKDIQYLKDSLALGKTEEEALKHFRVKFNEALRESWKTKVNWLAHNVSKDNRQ
PI3Kδ, sequence (P27986 whole entry partner): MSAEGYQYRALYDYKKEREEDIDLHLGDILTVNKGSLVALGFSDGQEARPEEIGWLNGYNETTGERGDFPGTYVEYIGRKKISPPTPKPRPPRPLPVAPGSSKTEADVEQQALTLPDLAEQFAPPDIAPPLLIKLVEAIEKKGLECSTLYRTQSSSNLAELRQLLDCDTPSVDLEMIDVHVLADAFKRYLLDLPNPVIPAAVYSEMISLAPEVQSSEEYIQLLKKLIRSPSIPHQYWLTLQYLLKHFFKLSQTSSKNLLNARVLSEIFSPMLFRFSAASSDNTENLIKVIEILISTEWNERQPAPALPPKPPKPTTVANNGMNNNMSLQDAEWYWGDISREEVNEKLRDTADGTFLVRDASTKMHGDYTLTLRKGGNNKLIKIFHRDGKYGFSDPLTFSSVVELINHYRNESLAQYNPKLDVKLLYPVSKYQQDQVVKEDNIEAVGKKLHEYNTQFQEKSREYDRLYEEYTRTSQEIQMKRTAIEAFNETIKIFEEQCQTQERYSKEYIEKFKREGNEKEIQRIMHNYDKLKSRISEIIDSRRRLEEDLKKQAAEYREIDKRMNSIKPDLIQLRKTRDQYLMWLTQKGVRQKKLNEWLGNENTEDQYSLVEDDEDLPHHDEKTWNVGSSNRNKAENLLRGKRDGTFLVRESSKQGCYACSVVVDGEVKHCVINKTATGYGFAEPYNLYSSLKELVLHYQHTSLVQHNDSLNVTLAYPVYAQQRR
PI3Kα, sequence (P42336 whole entry, the tested form may be a part, canonical isoform): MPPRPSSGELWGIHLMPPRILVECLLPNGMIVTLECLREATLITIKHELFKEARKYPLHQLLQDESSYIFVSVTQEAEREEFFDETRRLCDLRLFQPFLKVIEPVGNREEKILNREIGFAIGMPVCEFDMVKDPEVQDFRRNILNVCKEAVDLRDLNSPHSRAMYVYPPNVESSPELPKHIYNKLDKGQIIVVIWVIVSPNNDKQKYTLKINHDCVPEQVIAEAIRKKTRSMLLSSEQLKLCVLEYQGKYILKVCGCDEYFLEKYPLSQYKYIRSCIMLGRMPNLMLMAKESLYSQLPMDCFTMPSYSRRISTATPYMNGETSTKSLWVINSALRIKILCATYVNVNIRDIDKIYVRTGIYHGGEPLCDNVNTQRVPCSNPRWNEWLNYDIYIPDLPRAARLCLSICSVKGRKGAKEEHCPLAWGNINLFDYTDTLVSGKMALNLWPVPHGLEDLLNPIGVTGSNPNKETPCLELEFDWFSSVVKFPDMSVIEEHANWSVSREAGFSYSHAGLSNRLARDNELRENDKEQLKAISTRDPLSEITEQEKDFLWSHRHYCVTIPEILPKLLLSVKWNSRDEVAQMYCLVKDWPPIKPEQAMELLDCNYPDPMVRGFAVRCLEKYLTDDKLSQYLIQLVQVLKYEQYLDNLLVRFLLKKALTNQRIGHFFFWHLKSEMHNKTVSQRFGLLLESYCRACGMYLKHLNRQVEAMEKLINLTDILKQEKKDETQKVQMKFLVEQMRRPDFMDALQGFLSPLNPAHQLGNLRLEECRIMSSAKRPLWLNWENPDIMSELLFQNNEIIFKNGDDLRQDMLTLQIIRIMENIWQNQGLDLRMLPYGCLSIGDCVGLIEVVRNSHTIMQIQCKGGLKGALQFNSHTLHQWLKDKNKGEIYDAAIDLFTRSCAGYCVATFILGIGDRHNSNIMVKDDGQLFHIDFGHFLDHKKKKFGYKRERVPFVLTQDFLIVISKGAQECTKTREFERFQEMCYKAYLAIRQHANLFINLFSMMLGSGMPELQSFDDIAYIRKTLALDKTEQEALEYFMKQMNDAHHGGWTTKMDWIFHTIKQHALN
PI3Kα, sequence (P27986 whole entry partner, the tested form may be a part, canonical isoform): as the sequence (P27986 whole entry partner) above
PI3Kγ, sequence (P48736 whole entry): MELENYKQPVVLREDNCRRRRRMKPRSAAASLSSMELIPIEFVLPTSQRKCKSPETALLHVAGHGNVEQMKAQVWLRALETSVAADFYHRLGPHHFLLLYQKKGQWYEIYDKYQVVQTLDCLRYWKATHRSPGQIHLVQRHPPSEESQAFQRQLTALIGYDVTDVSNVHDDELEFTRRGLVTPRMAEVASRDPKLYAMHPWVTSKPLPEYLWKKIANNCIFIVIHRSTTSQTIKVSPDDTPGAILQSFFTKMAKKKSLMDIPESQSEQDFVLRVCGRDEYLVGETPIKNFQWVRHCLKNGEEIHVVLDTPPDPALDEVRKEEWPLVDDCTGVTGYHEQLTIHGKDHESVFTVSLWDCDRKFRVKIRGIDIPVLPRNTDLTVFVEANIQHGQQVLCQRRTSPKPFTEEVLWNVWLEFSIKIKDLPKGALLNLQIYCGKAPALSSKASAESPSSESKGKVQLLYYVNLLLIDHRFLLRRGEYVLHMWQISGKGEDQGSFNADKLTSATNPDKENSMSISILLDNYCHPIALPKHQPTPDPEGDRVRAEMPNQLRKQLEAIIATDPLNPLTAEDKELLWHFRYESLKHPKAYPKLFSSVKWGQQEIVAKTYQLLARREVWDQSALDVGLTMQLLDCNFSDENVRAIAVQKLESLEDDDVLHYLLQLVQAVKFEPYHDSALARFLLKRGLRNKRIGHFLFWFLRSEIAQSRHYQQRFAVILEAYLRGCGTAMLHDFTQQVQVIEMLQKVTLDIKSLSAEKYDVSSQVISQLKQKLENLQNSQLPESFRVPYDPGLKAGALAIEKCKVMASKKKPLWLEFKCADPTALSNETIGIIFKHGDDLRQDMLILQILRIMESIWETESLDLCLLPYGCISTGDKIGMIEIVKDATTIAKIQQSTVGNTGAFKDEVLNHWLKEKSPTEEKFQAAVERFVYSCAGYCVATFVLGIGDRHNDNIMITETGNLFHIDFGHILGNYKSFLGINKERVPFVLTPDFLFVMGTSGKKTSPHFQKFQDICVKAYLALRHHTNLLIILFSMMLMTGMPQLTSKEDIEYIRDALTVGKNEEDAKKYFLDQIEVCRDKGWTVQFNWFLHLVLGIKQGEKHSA
PI3Kγ, sequence (Q8WYR1 whole entry partner): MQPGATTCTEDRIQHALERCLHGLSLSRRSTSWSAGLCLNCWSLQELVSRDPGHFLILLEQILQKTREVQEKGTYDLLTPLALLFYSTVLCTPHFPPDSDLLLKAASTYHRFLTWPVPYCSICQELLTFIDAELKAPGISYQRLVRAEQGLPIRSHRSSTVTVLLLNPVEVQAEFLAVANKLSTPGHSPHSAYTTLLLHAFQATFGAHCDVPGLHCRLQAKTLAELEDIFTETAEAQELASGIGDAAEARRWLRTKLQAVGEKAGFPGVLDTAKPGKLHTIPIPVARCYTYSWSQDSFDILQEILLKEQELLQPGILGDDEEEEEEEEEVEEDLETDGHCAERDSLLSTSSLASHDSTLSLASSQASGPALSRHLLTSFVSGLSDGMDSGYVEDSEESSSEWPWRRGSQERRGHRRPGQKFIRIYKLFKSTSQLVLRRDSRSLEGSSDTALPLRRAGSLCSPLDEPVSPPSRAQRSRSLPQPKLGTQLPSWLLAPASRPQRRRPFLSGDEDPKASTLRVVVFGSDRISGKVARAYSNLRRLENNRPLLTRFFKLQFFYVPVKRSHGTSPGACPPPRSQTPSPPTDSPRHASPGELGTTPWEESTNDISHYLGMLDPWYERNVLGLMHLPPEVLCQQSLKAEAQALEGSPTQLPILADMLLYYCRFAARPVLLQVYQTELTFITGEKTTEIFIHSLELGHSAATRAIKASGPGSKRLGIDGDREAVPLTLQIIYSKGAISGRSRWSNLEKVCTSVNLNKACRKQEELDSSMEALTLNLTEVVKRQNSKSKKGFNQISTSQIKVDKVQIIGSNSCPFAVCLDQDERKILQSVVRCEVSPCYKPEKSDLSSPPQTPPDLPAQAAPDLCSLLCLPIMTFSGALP

| IC50 (PI3Kα) [µM] | IC50 (PI3Kδ) [nM] | IC50 (PI3Kγ; bound given in nM) [nM] | IC50 (PI3Kγ; bound given in uM) [nM] | SMILES |
| --- | --- | --- | --- | --- |
| > 1 | < 100 |  |  | C[C@H](Nc1ncnc(N)c1C#Cc1ccc(F)cn1)c1nc2c(F)ccc(Cl)c2c(=O)n1-c1ccccc1 [Compound 6a, (S)-2-(1-(6-amino-5-((5-fluoropyridin-2-yl)ethynyl)pyrimidin-4-ylamino)ethyl)-5-chloro-8-fluoro-3-phenylquinazolin-4(3H)-one] |
| > 1 | < 100 |  |  | COc1ccc(C#Cc2c(N)ncnc2N[C@@H](C)c2nc3c(Cl)ccc(Cl)c3c(=O)n2-c2ccccc2)nc1 [Compound 10a, (S)-2-(1-(6-amino-5-((5-methoxypyridin-2-yl)ethynyl)pyrimidin-4-ylamino)ethyl)-5,8-dichloro-3-phenylquinazolin-4(3H)-one] |
| > 1 | < 100 |  |  | COc1ccc(C#Cc2c(N)ncnc2N[C@@H](C)c2nc3c(F)cccc3c(=O)n2-c2ccccc2)nc1 [Compound 12a, (S)-2-(1-(6-amino-5-((5-methoxypyridin-2-yl)ethynyl)pyrimidin-4-ylamino)ethyl)-8-fluoro-3-phenylquinazolin-4(3H)-one] |
|  | < 100 | < 100 |  | C[C@H](Nc1ncnc(N)c1C#Cc1cnc(N)cc1C(F)(F)F)c1nc2cccc(Cl)c2c(=O)n1-c1cc(F)cc(F)c1 [Compound 17a, (S)-2-(1-(6-amino-5-((6-amino-4-(trifluoromethyl)pyridin-3-yl)ethynyl)pyrimidin-4-ylamino)ethyl)-5-chloro-3-(3,5-difluorophenyl)quinazolin-4(3H)-one] |
|  | < 100 | < 100 |  | C[C@H](Nc1nc(N)nc(N)c1C#Cc1ccccc1)c1nc2cccc(Cl)c2c(=O)n1-c1ccccc1 [Compound 25a, 5-chloro-2-(1-((2,6-diamino-5-(phenylethynyl)pyrimidin-4-yl)amino)ethyl)-3-phenylquinazolin-4(3H)-one] |
|  | < 100 |  |  | C[C@H](Nc1ncnc(N)c1C#Cc1cnc(N)nc1)c1nc2cccc(Cl)c2c(=O)n1-c1cc(F)cc(F)c1 [Compound 32a, (S)-2-(1-(6-amino-5-((2-aminopyrimidin-5-yl)ethynyl)pyrimidin-4-ylamino)ethyl)-5-chloro-3-(3,5-difluorophenyl)quinazolin-4(3H)-one] |
| > 1 | < 100 |  |  | C[C@H](Nc1ncnc(N)c1C#Cc1ccc(N)cn1)c1nc2cccc(Cl)c2c(=O)n1-c1cc(F)cc(F)c1 [Compound 34a, (S)-2-(1-(6-amino-5-((5-aminopyridin-2-yl)ethynyl)pyrimidin-4-ylamino)ethyl)-5-chloro-3-(3,5-difluorophenyl)quinazolin-4(3H)-one] |
| > 1 | < 100 |  |  | Nc1ncnc(N2CCC[C@H]2c2nc3cccc(Cl)c3c(=O)n2-c2ccccc2)c1C#Cc1ccccn1 [Compound 37a, (S)-2-(1-(6-amino-5-(pyridin-2-ylethynyl)pyrimidin-4-yl)pyrrolidin-2-yl)-5-chloro-3-phenylquinazolin-4(3H)-one] |
|  | < 100 |  |  | CCNS(=O)(=O)c1cccc(-n2c([C@H](C)Nc3ncnc(N)c3C#Cc3ccccn3)nc3cccc(Cl)c3c2=O)c1 [Compound 39a, (S)-3-(2-(1-(6-amino-5-(pyridin-2-ylethynyl)pyrimidin-4-ylamino)ethyl)-5-chloro-4-oxoquinazolin-3(4H)-yl)-N-ethylbenzenesulfonamide] |
|  | < 100 |  |  | C[C@H](Nc1ncnc(N)c1C#Cc1ccccn1)c1nc2cccc(Cl)c2c(=O)n1-c1cccc(S(N)(=O)=O)c1 [Compound 40a, (S)-3-(2-(1-(6-amino-5-(pyridin-2-ylethynyl)pyrimidin-4-ylamino)ethyl)-5-chloro-4-oxoquinazolin-3(4H)-yl)benzenesulfonamide] |
|  | < 100 | < 100 |  | C[C@H](Nc1ncnc(N)c1C#Cc1cccnc1)c1nc2cccc(Cl)c2c(=O)n1-c1ccccc1 [Compound 44a, (S)-2-(1-(6-amino-5-(pyridin-3-ylethynyl)pyrimidin-4-ylamino)ethyl)-5-chloro-3-phenylquinazolin-4(3H)-one] |
| > 1 | < 100 |  |  | COc1cc(F)cc(C#Cc2c(N)ncnc2N[C@@H](C)c2nc3cccc(Cl)c3c(=O)n2-c2ccccc2)c1 [Compound 47a, (S)-2-(1-(6-amino-5-((3-fluoro-5-methoxyphenyl)ethynyl)pyrimidin-4-ylamino)ethyl)-5-chloro-3-phenylquinazolin-4(3H)-one] |
| > 1 | < 100 |  |  | C[C@H](Nc1ncnc(N)c1C#Cc1ccc(F)cn1)c1nc2cccc(Cl)c2c(=O)n1-c1ccccc1 [Compound 48a, (S)-2-(1-(6-amino-5-((5-fluoropyridin-2-yl)ethynyl)pyrimidin-4-ylamino)ethyl)-5-chloro-3-phenylquinazolin-4(3H)-one] |
| > 1 | < 100 |  |  | Cc1cccc2nc([C@H](C)Nc3ncnc(N)c3C#Cc3ccc(F)cn3)n(-c3ccccc3)c(=O)c12 [Compound 54a, (S)-2-(1-((6-amino-5-((5-fluoropyridin-2-yl)ethynyl)pyrimidin-4-yl)amino)ethyl)-5-methyl-3-phenylquinazolin-4(3H)-one] |
| > 1 | < 100 |  |  | Cc1ccc(F)c2nc([C@H](C)Nc3ncnc(N)c3C#Cc3ccc(F)cn3)n(-c3ccccc3)c(=O)c12 [Compound 62a, (S)-2-(1-((6-amino-5-((5-fluoropyridin-2-yl)ethynyl)pyrimidin-4-yl)amino)ethyl)-8-fluoro-5-methyl-3-phenylquinazolin-4(3H)-one] |
| > 1 | < 100 |  |  | C[C@H](Nc1ncnc(N)c1C#Cc1cnccn1)c1nc2cccc(C(F)F)c2c(=O)n1-c1ccccc1 [Compound 76a, (S)-2-(1-((6-amino-5-(pyrazin-2-ylethynyl)pyrimidin-4-yl)amino)ethyl)-5-(difluoromethyl)-3-phenylquinazolin-4(3H)-one] |
| > 1 | < 100 |  |  | C[C@H](Nc1ncnc(N)c1C#Cc1cnccn1)c1nc2cccc(Cl)c2c(=O)n1-c1cccc(Cl)c1 [Compound 89a, (S)-2-(1-((6-amino-5-(pyrazin-2-ylethynyl)pyrimidin-4-yl)amino)ethyl)-5-chloro-3-(3-chlorophenyl)quinazolin-4(3H)-one] |
| > 1 | < 100 |  |  | C[C@H](Nc1ncnc(N)c1C#Cc1ncccn1)c1nc2cccc(Cl)c2c(=O)n1-c1ccccc1 [Compound 102a, (S)-2-(1-((6-amino-5-(pyrimidin-2-ylethynyl)pyrimidin-4-yl)amino)ethyl)-5-chloro-3-phenylquinazolin-4(3H)-one] |
| > 1 | < 100 |  |  | Cc1cccc2nc([C@H](C)Nc3ncnc(N)c3C#Cc3ncccn3)n(-c3ccccc3)c(=O)c12 [Compound 104a, (S)-2-(1-((6-amino-5-(pyrimidin-2-ylethynyl)pyrimidin-4-yl)amino)ethyl)-5-methyl-3-phenylquinazolin-4(3H)-one] |
| > 1 | < 100 |  |  | C[C@H](Nc1ncnc(N)c1C#Cc1ccccc1)c1nc2cccc(F)c2c(=O)n1-c1cccc(F)c1 [Compound 111a, (S)-2-(1-((6-amino-5-(phenylethynyl)pyrimidin-4-yl)amino)ethyl)-5-fluoro-3-(3-fluorophenyl)quinazolin-4(3H)-one] |
| > 1 | < 100 |  |  | C[C@H](Nc1ncnc(N)c1C#Cc1ccccc1)c1nc2cccc(C#N)c2c(=O)n1-c1ccccc1 [Compound 114a, (S)-2-(1-((6-amino-5-(phenylethynyl)pyrimidin-4-yl)amino)ethyl)-4-oxo-3-phenyl-3,4-dihydroquinazoline-5-carbonitrile] |
|  | < 100 |  | > 1000 | C[C@H](Nc1ncnc(N)c1C#Cc1ccccc1)c1nc2cccc(F)c2c(=O)n1-c1cccnc1 [Compound 116a, (S)-2-(1-((6-amino-5-(phenylethynyl)pyrimidin-4-yl)amino)ethyl)-5-fluoro-3-(pyridin-3-yl)quinazolin-4(3H)-one] |
| > 1 | < 100 |  |  | C[C@H](Nc1ncnc(N)c1C#Cc1cnccn1)c1nc2cccc(Cl)c2c(=O)n1-c1cccc(CNS(C)(=O)=O)c1 [Compound 123a, (S)—N-(3-(2-(1-((6-amino-5-(pyrazin-2-ylethynyl)pyrimidin-4-yl)amino)ethyl)-5-chloro-4-oxoquinazolin-3(4H)-yl)benzyl)methanesulfonamide] |
| > 1 | < 100 |  |  | C[C@H](Nc1ncnc(N)c1C#Cc1cc(C(F)(F)F)ccn1)c1nc2cccc(Cl)c2c(=O)n1-c1ccccc1 [Compound 148a, (S)-2-(1-((6-amino-5-((4-(trifluoromethyl)pyridin-2-yl)ethynyl)pyrimidin-4-yl)amino)ethyl)-5-chloro-3-phenylquinazolin-4(3H)-one] |
| > 1 | < 100 |  |  | C[C@H](Nc1ncnc(N)c1C#Cc1cccc(C(F)(F)F)n1)c1nc2cccc(Cl)c2c(=O)n1-c1ccccc1 [Compound 151a, (S)-2-(1-((6-amino-5-((6-(trifluoromethyl)pyridin-2-yl)ethynyl)pyrimidin-4-yl)amino)ethyl)-5-chloro-3-phenylquinazolin-4(3H)-one] |
| > 1 | < 100 |  |  | CC(=O)c1cccc(C#Cc2c(N)ncnc2N[C@@H](C)c2nc3cccc(Cl)c3c(=O)n2-c2ccccc2)n1 [Compound 153a, (S)-2-(1-((5-((6-acetylpyridin-2-yl)ethynyl)-6-aminopyrimidin-4-yl)amino)ethyl)-5-chloro-3-phenylquinazolin-4(3H)-one] |
